Measured values as given in patent US20210052633A1, “HYALURONIC ACID SYNTHESIS PROMOTER, METHOD FOR PROMOTING HYALURONIC ACID SYNTHESIS, AND CELL EVALUATION METHOD” (SEIKAGAKU CORPORATION, priority 2018, published 2021).

How the values were obtained:
[1] = system: Human synovial cells derived from a patient with rheumatism (HFLS-RA); experiment: Hyaluronic acid synthesis by synovial cells ([3H] glucosamine incorporation, HPLC fractionation by molecular weight); format: cell-based
Description: Compound 1 or sodium hyaluronate (HA) (ARTZ Dispo (registered trademark) (manufactured by Seikagaku Corporation)) was mixed in a solution containing a phosphate buffer solution (GIBCO) and an α-MEM (GIBCO) concentrated medium. Further, each reagent was added and mixed in the resulting solution so that the final concentrations were as follows: 10% (v/v) fetal bovine serum (hereinafter FBS (MP Biomedicals)), 10 ng/mL recombinant human IL-1β/IL-1F2 (hereinafter IL-1β (R & D Systems)), 1% (w/v) penicillin/streptomycin (GIBCO), and 370 kBq/mL [^3H] glucosamine (Perkin Elmer). As a result, the following five solutions were obtained as test substances.
Human synovial cells derived from a patient with rheumatism (HFLS-RA, CELL APPLICATIONS, INC.) were subcultured and grown in a 175-cm^2 flask. In the cell culture, Basal medium (containing 10% (v/v) Growth supplement and 1% (w/v) penicillin/streptomycin) (manufactured by Cell Applications, Inc.) was used. Thereafter, the cells were seeded in a 6-well plate at 3.0×10^5 cells/2 mL/well and cultured for about 24 hours until confluence was reached. In the cell culture, α-MEM medium (containing 10% (v/v) FBS and 1% (w/v) penicillin/streptomycin) was used. After removing the culture supernatant, 2 mL of the test substance was added to the cells, and the cells were further cultured for 48 hours. The culture was performed at 37° C. in a CO2 incubator (5% (v/v) CO2). After completion of the culture, the culture supernatant was collected and cryopreserved in an ultra-low temperature freezer until measurement.
Since glucosamine is a constituent monosaccharide of hyaluronic acid, in hyaluronic acid newly synthesized in the cells after addition of the test substance, [^3H] glucosamine is incorporated. Therefore, hyaluronic acid in the collected culture supernatant was separated according to molecular weight using HPLC, and fractions were collected every 0.5 minutes using a fraction collector. To each of the collected fractions, 0.5 mL of a scintillation fluid was added and mixed. Thereafter, the radioactivity (dpm, disintegrations per minute) of each fraction was measured using a scintillation counter, and the radioactivity (the amount of [^3H] glucosamine incorporated into newly produced hyaluronic acid) was evaluated. The HPLC conditions are as follows.
Mobile phase: a solution of 5 mmol/L phosphate buffer solution (pH 6.0) with 0.82% (w/v) NaCl:acetonitrile=2:1 (v:v)
Column: OH pak SB-805 HQ column (Shodex (registered trademark)), column temperature: 35° C.
The hyaluronic acid standard solution was separated by HPLC, and UV absorption at a wavelength of 210 nm was measured. Fraction No. in which the peak top of the hyaluronic acid standard solution of each molecular weight is collected was calculated. As the hyaluronic acid standard solutions, Select-HATM 500 k (average molecular weight: 528,000), Select-HATM 1,000 k (average molecular weight: 1,076,000), and Select-HATM 2,500 k (average molecular weight: 2,420,000) were used.
The same procedure as in Example 1 was performed. Note that the culture supernatant was collected at respective time points (8, 24, 36, 48, and 72 hours) after adding the test substance to the cells.
A control solution, a 0.01% (w/v %) compound 1 solution, and a 0.01% (w/v %) sodium hyaluronate (HA) solution were prepared in the same manner as in Example 1. DF-Na (0.014 μg/mL, 0.14 μg/mL, 1.4 μg/mL, and 14 μg/mL) solutions were prepared by dissolving DF-Na in the control solution. Further, a HA+DF-Na mixed liquid was obtained by dissolving DF-Na (1.4 μg/mL) in the 0.01% (w/v %) sodium hyaluronate (HA) solution.
(§1) The same procedure as in Example 1 was performed.
The same procedure as in Example 1 was performed. Note that a column (OH pak SB-807 HQ column (Shodex (registered trademark)) having higher separability on the high molecular weight side than the HPLC column (OH pak SB-805 HQ column (Shodex (registered trademark)) was used.

[2] = system: human synovial cells derived from three patients with osteoarthritis (HFLS-OA); experiment: as above; format: cell-based; conditions: 48 hours, SB-807 HQ column
HYAL2 mRNA = experiment: Relative mRNA level (real-time PCR, ΔΔCt) in synovial cells; format: cell-based, human; conditions: HFLS-OA, 0.1% (w/v), 48 hours, vs control
Description: (§2) Compound 1 or sodium hyaluronate (HA) (ARTZ Dispo (registered trademark) (manufactured by Seikagaku Corporation)) was mixed in a solution containing a phosphate buffer solution and an α-MEM concentrated medium. Further, each reagent was added and mixed in the resulting solution so that the final concentrations were as follows: 10% (v/v) fetal bovine serum (hereinafter FBS), 10 ng/mL recombinant human IL-1β/IL-1F2 (hereinafter IL-1β), and 1% (w/v) penicillin/streptomycin. As a result, the following three solutions were prepared as test substances.
(§3) Human synovial cells derived from a patient with osteoarthritis (HFLS-OA, CELL APPLICATIONS, INC.) were subcultured and grown in a 175-cm^2 flask. In the cell culture, Basal medium (containing 10% (v/v) Growth supplement and 1% (w/v) penicillin/streptomycin) (manufactured by Cell Applications, Inc.) was used. Thereafter, the cells were seeded in a 6-well plate at 3.0×10^5 cells/2 mL/well and cultured for about 24 hours until confluence was reached. In the cell culture, α-MEM medium (containing 10% (v/v) FBS and 1% (w/v) penicillin/streptomycin) was used. […]
(§4) The cDNA sample was subjected to real-time PCR using Premix ExTaq (Perfect Real Time) (Takara Bio, Inc.), the Ct values of target genes (HAS1, HAS2, HAS3, HYAL1, HYAL2, and HYAL3) and GAPDH were measured, and relative mRNA levels were calculated by the ΔΔCt method.

HAS2 mRNA = experiment: as above; format: cell-based, human; conditions: HFLS-OA, 0.1% (w/v), 48 hours, vs control
Description: as §2, §3, §4

[3] = system: Human synovial cells derived from a patient with rheumatism (HFLS-RA); experiment: Hyaluronidase treatment of culture supernatant, then fractionation and radioactivity measurement; format: cell-based; conditions: Example 2, 0.01% (w/v)
Description: It was verified that the substance whose synthesis was promoted by the action of the compound 1 is hyaluronic acid by confirming the presence or absence of degradation by a hyaluronic acid-degrading enzyme (hyaluronidase).
as §1
The culture supernatant (90 μL) collected after adding the 0.01% HA solution and 10 μL of 100 TRU/mL hyaluronidase (or water for injection) were mixed and reacted overnight at 37° C., thereby performing a hyaluronidase treatment. The culture supernatant (90 μL) collected after adding the 0.01% compound 1 solution and 30 μL of 100 TRU/mL hyaluronidase (or water for injection) were mixed and reacted at 60° C. for 3 hours, thereby performing a hyaluronidase treatment. The hyaluronidase (derived from an actinomycetes) was purchased from Seikagaku Biobusiness Corporation.

[4] = system: synovial cells derived from patients with osteoarthritis (HFLS-OA)
Description: The cells derived from three patients with each disease (3 lots) were separately evaluated and the number of cases was set to 3.
After the culture supernatant was collected, the adhered cells were detached from each well. Thereafter, the cell count was measured using a trypan blue solution and a hemacytometer.

[5] = system: model rabbit with antigen-induced arthritis; experiment: Hyaluronic acid synthesis in the knee joint of a model rabbit with antigen-induced arthritis; format: in vivo, Japanese white rabbit
Source text: A 0.5% (w/v %) compound 1 solution was obtained by mixing respective solutions of a 1% (w/v) compound 1 solution (phosphate buffer solution), a 10% (w/v) ovalbumin solution (phosphate buffer solution) and [^3H] glucosamine (phosphate buffer solution, 37 MBq/mL) at a ratio of 5:1:4 (v:v:v). In the preparation of a control solution, a phosphate buffer solution was used in place of the compound 1 solution. In the preparation of a sodium hyaluronate (HA) solution, ARTZ Dispo (registered trademark) (manufactured by Seikagaku Corporation) was used in place of the compound 1 solution. Further, a Normal solution not containing ovalbumin (an arthritis-inducing substance) was obtained by mixing respective solutions of a phosphate buffer solution and [^3H] glucosamine (phosphate buffer solution, 37 MBq/mL) at a ratio of 3:2 (v:v). As test substances, the following substances were used.
Ovalbumin (SIGMA) was dissolved and prepared with physiological saline (Otsuka Pharmaceutical Factory, Inc.) at 1% (w/v), and a water-in-oil emulsion was prepared with Freund's complete adjuvant (CAPPEL) at 1:1 (v:v). The emulsion was intradermally administered at a total dose of 1 mL to dozens of sites of the back of a Japanese white rabbit (male, 16 weeks of age, Oriental Yeast Industry Co., Ltd.) under general anesthesia (midazolam, xylazine, and butorphanol at 0.67 mg/kg, 5.3 mg/kg, and 0.67 mg/kg, i.v., respectively) to sensitize the rabbit. On day 12 after sensitization, the rabbit was additionally sensitized by administering the emulsion in the same manner. […]
Since glucosamine is a constituent monosaccharide of hyaluronic acid, in hyaluronic acid newly synthesized in the living body after administration of the test substance, [^3H] glucosamine is incorporated. […] Thereafter, the radioactivity (dpm, disintegrations per minute) of each fraction was measured using a scintillation counter, and the radioactivity (the amount of [^3H] glucosamine incorporated into newly synthesized hyaluronic acid) was evaluated. […]

[6] = 0.5% (w/v), 0.5 mL/joint, 48 hours

Compound | action of producing high molecular weight hyaluronic acid observed in the compound 1 group ([1]; Example 4, HFLS-RA, 48 hours, 0.01% HA, DF-Na 1.4 μg/mL, or both mixed) | molecular weight peak of hyaluronic acid produced ([1]; Example 4, HFLS-RA, DF-Na 1.4 μg/mL, 48 hours) | action of promoting hyaluronic acid synthesis ([1]; Example 4, HFLS-RA, DF-Na 0.014 to 14 μg/mL, 48 hours) | molecular weight peak of hyaluronic acid produced ([2]; Example 5, 0.01% (w/v)) | molecular weight of hyaluronic acid produced ([2]; Example 5, 0.1% (w/v)) | expression of HYAL2 mRNA (relative mRNA level) (HYAL2 mRNA) | expression of HAS2 mRNA (relative mRNA level) (HAS2 mRNA) | action of promoting the synthesis of high molecular weight hyaluronic acid ([1]; Example 1, HFLS-RA, 0.1% and 0.01% (w/v), 48 hours) | molecular weight peak of hyaluronic acid produced ([1]; Example 1, HFLS-RA, IL-1β, 0.1% and 0.01% (w/v) test substance, 48 hours, SB-805 HQ column, control peak in the vicinity of 500,000) | molecular weight peak of hyaluronic acid produced ([1]; Example 3, HFLS-RA, 0.1% (w/v), 8, 24, 36, 48 and 72 hours, control in the vicinity of 500,000) | content of hyaluronic acid over time ([1]; Example 3, HFLS-RA, 0.1% (w/v), 8 to 72 hours) | molecular weight peak of hyaluronic acid produced ([1]; Example 4, HFLS-RA, 0.01% (w/v), 48 hours, control in the vicinity of 500,000) | molecular weight peak of hyaluronic acid produced ([1]; Example 5, synovial cells from three patients with rheumatism, 0.01% (w/v), 48 hours, SB-807 HQ column) | peak of the high molecular weight radioactive substance after hyaluronidase treatment ([3]; hyaluronidase (+)) | production and molecular weight of high molecular weight radioactive substance ([3]; hyaluronidase (−)) | cell count after cell culture [4] | molecular weight peak of hyaluronic acid synthesized in the knee joint ([5]; 0.5% (w/v) solution, 0.5 mL/joint into the knee joint cavity, joint fluid at 48 hours, normal rabbit peak higher than 2,300,000) | amount of high molecular weight hyaluronic acid produced in the knee joint [5, 6] | production amount of hyaluronic acid in the knee joint [5, 6]
O=C(O)Cc1ccccc1Nc1c(Cl)cccc1Cl [DF-Na, diclofenac sodium, reference compound] | not observed | ~500,000 | not observed at any concentration |  |  |  |  |  |  |  |  |  |  |  |  |  |  |  | 
Aminoethanol-diclofenac-introduced sodium hyaluronate [compound 1] |  |  |  | ~2,400,000 | more than 2,400,000 | significantly suppresses | significantly promotes | has an action of promoting the synthesis of high molecular weight hyaluronic acid | high molecular weight exceeding the molecular weight of hyaluronic acid produced in the HA group | higher molecular weight than that in the HA groups | increases over time | more prominent than in the HA group | ~2,400,000 | disappearance of the peak | higher molecular weight than the radioactive substance in the 0.01% HA (hyaluronidase (−)) group | no significant increase or decrease | ~2,300,000 | prominent as compared with the sodium hyaluronate administration group | more prominent in the compound 1 administration group even as compared with the normal group
